Results published in patent US20110152314A1, “USE OF TENATOPRAZOLE FOR THE TREATMENT OF GASTROESOPHAGEAL REFLUX DISEASE” (SIDEM PHARMA, priority 2002, published 2011).
Like-named read-outs stand apart in the source and are kept apart here.

Experiments:
Format in all cases: in vivo, human
[1] = Phase I study, pharmacokinetic parameters after oral single dose and daily dose for 7 days; conditions: for AUC(0-t) / Cmax at 7 days / Tmax at 7 days / half-life at 7 days / Cmax / Tmax / half-life: human, oral; for AUC(0-t): po, read-out: AUC 0-t area under the curve, between time 0 and the last measurable concentration; for Cmax at 7 days / Cmax: read-out: Cmax maximum concentration; for Tmax at 7 days / Tmax: read-out: Tmax time required to attain maximum concentration
Procedure: The doses tested were 10, 20, 40 and 80 mg of tenatoprazole.
In this table, the abbreviations employed have the following meaning:
Cmax maximum concentration
Tmax time required to attain maximum concentration
T1/2 elimination half-life
AUC0-t area under the curve, between time 0 and the last measurable concentration.
The AUC0-inf value was calculated by extrapolation.

[2] = system: patients with gastroesophageal reflux symptoms; assay: Clinical treatment of patients with gastroesophageal reflux symptoms; conditions: 20 mg tablet daily;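 on Evolution of symptom: one to three plus signs grade improvement from moderate to highly favorable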
Procedure: (§1) Some clinical examples are given below, which show the effects of treatment on patients suffering from gastroesophageal reflux or dyspepsia, treated by the oral administration of tenatoprazole.
Treatment consisted in the daily administration of a tablet containing 20 mg tenatoprazole.

[3] = system: patients with symptoms of functional dyspepsia; assay: Clinical treatment of patients with symptoms of functional dyspepsia; design: Safety: key: +: moderate; ++: ranging from moderate to highly favorable; +++: highly favorable; conditions: oral
Text: as §1

[4] = system: patients suffering from erosive and/or ulcerative type reflux esophagitis; assay: Open-labeled studies in reflux esophagitis: endoscopic improvement rating
Procedure: Two open-labeled studies have been conducted in order to evaluate the efficacy and safety of tenatoprazole for gastroesophageal reflux disease. 22 patients in the first study and 24 patients in the second study, of more than 20 years of age, suffering from erosive and/or ulcerative type reflux esophagitis (diagnosed by endoscopy), received tablets containing enteric-coated granules with 10 mg of tenatoprazole.
The tablets were administered orally once a day after breakfast, for a treatment period of 8 weeks, which was continued up to 12 weeks in some cases. Healing was controlled by endoscopic examination 4 weeks and 8 weeks after the first administration, or at the withdrawal from the study, the disease stages were evaluated according to the Savary and Miller classification and the treatment was stopped when healing was confirmed. The condition was evaluated as healed when disappearance of erosion was confirmed.

[5] = in vivo, repeated dose (7 days) 10 mg daily
[6] = in vivo, repeated dose (7 days) 20 mg daily
[7] = in vivo, repeated dose (7 days) 40 mg daily
[8] = in vivo, repeated dose (7 days) 80 mg daily
[9] = patient 30, nocturnal heartburn, 8 weeks
[10] = patient 25, epigastric discomfort, 12 weeks
[11] = patient 28, distension, 4 weeks
[12] = patient 34, early satiety, 8 weeks
[13] = patient 36, epigastric discomfort, 8 weeks
[14] = patient 38, epigastric pain, 8 weeks
[15] = patient 38, sensation of gastric fullness, 8 weeks
[16] = patient 39, epigastric pain, 4 weeks
[17] = patient 42, early satiety, 6 weeks
[18] = patient 45, epigastric pain, 6 weeks
[19] = 1st study, 4 weeks, 10 mg tablet orally once a day
[20] = 1st study, 8 weeks, 10 mg tablet orally once a day
[21] = 1st study, final, 10 mg tablet orally once a day
[22] = 2nd study, 4 weeks, 10 mg tablet orally once a day
[23] = 2nd study, 8 weeks, 10 mg tablet orally once a day
[24] = 2nd study, 12 weeks, 10 mg tablet orally once a day
[25] = 2nd study, final, 10 mg tablet orally once a day

Structure (SMILES): COc1ccc2[nH]c([S+]([O-])Cc3ncc(C)c(OC)c3C)nc2n1 (centres unmarked) [tenatoprazole, 5-methoxy-2-[[(4-methoxy-3,5-dimethyl-2-pyridyl)methyl]sulfinyl]imidazo[4,5-b]pyridine]
- AUC(0-t) ([1]; in vivo, 10 mg, repeated dose (7 days) 10 mg daily): 13000 ng·h/mL
- AUC(0-t) ([1]; in vivo, 10 mg, single dose 10 mg): 8000 ng·h/mL
- AUC(0-t) ([1]; in vivo, 20 mg, repeated dose (7 days) 20 mg daily): 36000 ng·h/mL
- AUC(0-t) ([1]; in vivo, 20 mg, single dose 20 mg): 24000 ng·h/mL
- AUC(0-t) ([1]; in vivo, 40 mg, repeated dose (7 days) 40 mg daily): 75000 ng·h/mL
- AUC(0-t) ([1]; in vivo, 40 mg, single dose 40 mg): 43000 ng·h/mL
- AUC(0-t) ([1]; in vivo, 80 mg, repeated dose (7 days) 80 mg daily): 218000 ng·h/mL
- AUC(0-t) ([1]; in vivo, 80 mg, single dose 80 mg): 97000 ng·h/mL
- Cmax at 7 days [1, 5]: 1600 ng/mL
- Tmax at 7 days [1, 5]: 3 h
- half-life at 7 days ([1]; in vivo, repeated dose (7 days) 10 mg daily, read-out: T½ elimination half-life (converted)): 5 h
- Cmax at 7 days [1, 6]: 3000 ng/mL
- Tmax at 7 days [1, 6]: 2 h
- half-life at 7 days ([1]; in vivo, repeated dose (7 days) 20 mg daily, read-out: T½ elimination half-life (converted)): 8 h
- Cmax at 7 days [1, 7]: 5500 ng/mL
- Tmax at 7 days [1, 7]: 3 h
- half-life at 7 days ([1]; in vivo, repeated dose (7 days) 40 mg daily, read-out: T½ elimination half-life (converted)): 9 h
- Cmax at 7 days [1, 8]: 11800 ng/mL
- Tmax at 7 days [1, 8]: 2 h
- half-life at 7 days ([1]; in vivo, repeated dose (7 days) 80 mg daily, read-out: T½ elimination half-life (converted)): 9.2 h
- Cmax ([1]; in vivo, single dose 10 mg): 900 ng/mL
- Tmax ([1]; in vivo, single dose 10 mg): 4 h
- half-life ([1]; in vivo, single dose 10 mg, read-out: T½ elimination half-life (converted)): 5 h
- Cmax ([1]; in vivo, single dose 20 mg): 2400 ng/mL
- Tmax ([1]; in vivo, single dose 20 mg): 4 h
- Cmax ([1]; in vivo, single dose 40 mg): 5300 ng/mL
- Tmax ([1]; in vivo, single dose 40 mg): 3 h
- half-life ([1]; in vivo, single dose 40 mg, read-out: T½ elimination half-life (converted)): 6 h
- Cmax ([1]; in vivo, single dose 80 mg): 8300 ng/mL
- Tmax ([1]; in vivo, single dose 80 mg): 3 h
- half-life ([1]; in vivo, single dose 80 mg, read-out: T½ elimination half-life (converted)): 7 h
- half-life ([1]; plasma, after a single dose, depending on the dose (10-80 mg), read-out: mean elimination half-lives): 5 to 6 h
- half-life at 7 days ([1]; plasma, after administration for seven days, depending on the dose (10-80 mg), read-out: mean elimination half-lives): 5 to 9.5 h
- half-life compared with other proton pump inhibitors (omeprazole, esomeprazole) ([1]; in vivo): some seven times longer
- dose dependence of Cmax, AUC0-t and AUC0-inf ([1]; single or repeated administration, 10-80 mg): increased in a linear fashion
- cases in which treatment was perfectly tolerated ([2]; patients of Table 2): 12 out of 14
- evolution observed in symptoms, overall ([2]; patients of Table 2): generally very favorable
- Evolution of symptom ([2]; patient 25, heartburn, 12 weeks): +++
- Evolution of symptom ([2]; patient 28, nocturnal heartburn, 4 weeks): +++
- Evolution of symptom [2, 9]: +++
- Evolution of symptom ([2]; patient 34, heartburn, 8 weeks): +++
- Evolution of symptom ([2]; patient 35, nocturnal heartburn, 4 weeks): ++
- Evolution of symptom ([2]; patient 36, regurgitation, 8 weeks): +++
- Evolution of symptom ([2]; patient 38, heartburn, 8 weeks): +++
- Evolution of symptom ([2]; patient 38, nocturnal heartburn, 8 weeks): +++
- Evolution of symptom ([2]; patient 39, nocturnal heartburn, 4 weeks): +
- Evolution of symptom ([2]; patient 41, heartburn, 8 weeks): +++
- Evolution of symptom ([2]; patient 42, heartburn, 8 weeks): ++
- Evolution of symptom ([2]; patient 45, nocturnal heartburn, 8 weeks): +++
- Evolution of symptom ([2]; patient 47, nocturnal heartburn, 8 weeks): ++
- Evolution of symptom ([2]; patient 49, regurgitation, 8 weeks): ++
- Evolution of symptom [3, 10]: ++
- Safety [3, 10]: +++
- Evolution of symptom [3, 11]: +
- Safety [3, 11]: +++
- Evolution of symptom [3, 9]: +++
- Safety [3, 9]: +++
- Evolution of symptom [3, 12]: +++
- Safety [3, 12]: +++
- Evolution of symptom ([3]; patient 35, heartburn, 8 weeks): +++
- Safety ([3]; patient 35, heartburn, 8 weeks): +++
- Evolution of symptom [3, 13]: +++
- Safety [3, 13]: ++
- Evolution of symptom [3, 14]: +++
- Safety [3, 14]: ++
- Evolution of symptom [3, 15]: +++
- Safety [3, 15]: +++
- Evolution of symptom [3, 16]: ++
- Safety [3, 16]: ++
- Evolution of symptom ([3]; patient 41, heartburn, 6 weeks): +++
- Safety ([3]; patient 41, heartburn, 6 weeks): +++
- Evolution of symptom [3, 17]: ++
- Safety [3, 17]: +++
- Evolution of symptom ([3]; patient 44, nausea, 10 weeks): +++
- Safety ([3]; patient 44, nausea, 10 weeks): +++
- Evolution of symptom [3, 18]: +++
- Safety [3, 18]: ++
- Evolution of symptom ([3]; patient 47, nausea, 4 weeks): ++
- Safety ([3]; patient 47, nausea, 4 weeks): +++
- Evolution of symptom ([3]; patient 49, nausea, 8 weeks): ++
- Safety ([3]; patient 49, nausea, 8 weeks): +++
- Endoscopic improvement rating, patients rated A healed [4, 19]: 20
- Endoscopic improvement rating, patients rated B markedly decreased [4, 19]: 1
- Endoscopic improvement rating, patients rated C moderately decreased [4, 19]: 0
- Endoscopic improvement rating, patients rated D slightly decreased [4, 19]: 0
- Endoscopic improvement rating, patients rated E not changed [4, 19]: 1
- Endoscopic improvement rating, patients rated F aggravated [4, 19]: 0
- Endoscopic improvement rating, patients rated A healed [4, 20]: 21
- Endoscopic improvement rating, patients rated B markedly decreased [4, 20]: 0
- Endoscopic improvement rating, patients rated C moderately decreased [4, 20]: 0
- Endoscopic improvement rating, patients rated D slightly decreased [4, 20]: 0
- Endoscopic improvement rating, patients rated E not changed [4, 20]: 1
- Endoscopic improvement rating, patients rated F aggravated [4, 20]: 0
- Endoscopic improvement rating, patients rated A healed [4, 21]: 21
- Endoscopic improvement rating, patients rated B markedly decreased [4, 21]: 0
- Endoscopic improvement rating, patients rated C moderately decreased [4, 21]: 0
- Endoscopic improvement rating, patients rated D slightly decreased [4, 21]: 0
- Endoscopic improvement rating, patients rated E not changed [4, 21]: 1
- Endoscopic improvement rating, patients rated F aggravated [4, 21]: 0
- Endoscopic improvement rating, patients rated A healed [4, 22]: 23
- Endoscopic improvement rating, patients rated B markedly decreased [4, 22]: 2
- Endoscopic improvement rating, patients rated C moderately decreased [4, 22]: 0
- Endoscopic improvement rating, patients rated D slightly decreased [4, 22]: 0
- Endoscopic improvement rating, patients rated E not changed [4, 22]: 0
- Endoscopic improvement rating, patients rated F aggravated [4, 22]: 0
- Endoscopic improvement rating, patients rated A healed [4, 23]: 24
- Endoscopic improvement rating, patients rated B markedly decreased [4, 23]: 0
- Endoscopic improvement rating, patients rated C moderately decreased [4, 23]: 0
- Endoscopic improvement rating, patients rated D slightly decreased [4, 23]: 0
- Endoscopic improvement rating, patients rated E not changed [4, 23]: 0
- Endoscopic improvement rating, patients rated F aggravated [4, 23]: 0
- Endoscopic improvement rating, patients rated A healed [4, 24]: 24
- Endoscopic improvement rating, patients rated B markedly decreased [4, 24]: 0
- Endoscopic improvement rating, patients rated C moderately decreased [4, 24]: 0
- Endoscopic improvement rating, patients rated D slightly decreased [4, 24]: 0
- Endoscopic improvement rating, patients rated E not changed [4, 24]: 0
- Endoscopic improvement rating, patients rated F aggravated [4, 24]: 0
- Endoscopic improvement rating, patients rated A healed [4, 25]: 24
- Endoscopic improvement rating, patients rated B markedly decreased [4, 25]: 0
- Endoscopic improvement rating, patients rated C moderately decreased [4, 25]: 0
- Endoscopic improvement rating, patients rated D slightly decreased [4, 25]: 0
- Endoscopic improvement rating, patients rated E not changed [4, 25]: 0
- Endoscopic improvement rating, patients rated F aggravated [4, 25]: 0
- patients not healed after 8 weeks treatment ([4]; both studies, 10 mg tablet orally once a day): Only one patient was not healed
- efficacy in the treatment of gastroesophageal reflux disease, overall ([4]; both studies, healing obtained with a 4 week treatment): very effective
